pIC50: −log10 of the molar value. The source made the active and inactive calls. The rule behind the calls is not given here.
What was measured:
[1] = biological target: DNA polymerase beta (Rattus norvegicus) (UniProt P06766); test: Inhibition of rat DNA polymerase beta-mediated DNA polymerization up to 100 ug/mL after 1 hr
[2] = biological target: DNA polymerase beta (Rattus norvegicus, UniProt P06766); test: Inhibition of lyase activity of rat DNA polymerase beta after 30 mins
[3] = test system: A549; test: Cytotoxicity against human A549 cells at 6 uM after 48 hrs in presence of 0.5 uM blenoxane; format: functional
[4] = test system: A549; test: Cytotoxicity against human A549 cells at 6 uM after 48 hrs; format: functional; settings: A549, 48 h
[5] = test system: A549; test: Cytotoxicity against human A549 cells at 0.5 uM after 48 hrs; format: functional, cell-based

Row | Activity [1] | pIC50 [2] | Compound | inhibition (INH) [3] [%] | inhibition at 6 µM [4] [%] | inhibition [5] [%]
1 | inactive | 3.91 | COc1cc2cc(Oc3ccc4ccc(=O)oc4c3)c(=O)oc2cc1O [DAPHNORETIN] |  |  | 
2 | inactive |  | O=c1ccc2ccc(Oc3cc4ccc(O)cc4oc3=O)cc2o1 [EDGEWORIN] | 50.7 | 1.6 | 
3 | inactive | 4.02 | O=c1ccc2ccc(Oc3cc4cc(O)c(O)cc4oc3=O)cc2o1 [EDGEWORTHIN] |  |  | 
4 |  |  | BLEOMYCIN SULFATE |  |  | 35.5
